Reference: PubChem BioAssay AID1259407 (Chemical Carcinogenesis Research Information System (CCRIS), 2018)
The source made the active and inactive calls. The rule behind the calls is not given here.

Tested on: CCRIS mutagenicity, Ames/micronucleus/aberration tests
Assay: CCRIS mutagenicity studies
[1] = Test System: AMES SALMONELLA TYPHIMURIUM, Strain/Indicator: TA98, Metabolic Activation: NONE, Method: PREINCUBATION
[2] = Test System: AMES SALMONELLA TYPHIMURIUM, Strain/Indicator: TA100, Metabolic Activation: NONE, Method: PREINCUBATION

Measured: mutagenic call

Cc1ccc(Br)cc1
inactive: Test System: AMES SALMONELLA TYPHIMURIUM, Strain/Indicator: TA97, Metabolic Activation: HAMSTER, LIVER, S-9, AROCLOR 1254 (10%), Method: PREINCUBATION inactive; negative | Test System: AMES SALMONELLA TYPHIMURIUM, Strain/Indicator: TA97, Metabolic Activation: HAMSTER, LIVER, S-9, AROCLOR 1254 (30%), Method: PREINCUBATION inactive; negative | Test System: AMES SALMONELLA TYPHIMURIUM, Strain/Indicator: TA97, Metabolic Activation: NONE, Method: PREINCUBATION inactive; negative | Test System: AMES SALMONELLA TYPHIMURIUM, Strain/Indicator: TA97, Metabolic Activation: RAT, LIVER, S-9, AROCLOR 1254 (10%), Method: PREINCUBATION inactive; negative | Test System: AMES SALMONELLA TYPHIMURIUM, Strain/Indicator: TA97, Metabolic Activation: RAT, LIVER, S-9, AROCLOR 1254 (30%), Method: PREINCUBATION inactive; negative | Test System: AMES SALMONELLA TYPHIMURIUM, Strain/Indicator: TA98, Metabolic Activation: HAMSTER, LIVER, S-9, AROCLOR 1254 (10%), Method: PREINCUBATION inactive; negative | Test System: AMES SALMONELLA TYPHIMURIUM, Strain/Indicator: TA98, Metabolic Activation: HAMSTER, LIVER, S-9, AROCLOR 1254 (30%), Method: PREINCUBATION inactive; negative | [1] inactive; negative | Test System: AMES SALMONELLA TYPHIMURIUM, Strain/Indicator: TA98, Metabolic Activation: RAT, LIVER, S-9, AROCLOR 1254 (10%), Method: PREINCUBATION inactive; negative | Test System: AMES SALMONELLA TYPHIMURIUM, Strain/Indicator: TA98, Metabolic Activation: RAT, LIVER, S-9, AROCLOR 1254 (30%), Method: PREINCUBATION inactive; negative | Test System: AMES SALMONELLA TYPHIMURIUM, Strain/Indicator: TA100, Metabolic Activation: HAMSTER, LIVER, S-9, AROCLOR 1254 (10%), Method: PREINCUBATION inactive; negative | Test System: AMES SALMONELLA TYPHIMURIUM, Strain/Indicator: TA100, Metabolic Activation: HAMSTER, LIVER, S-9, AROCLOR 1254 (30%), Method: PREINCUBATION inactive; negative | [2] inactive; negative | Test System: AMES SALMONELLA TYPHIMURIUM, Strain/Indicator: TA100, Metabolic Activation: RAT, LIVER, S-9, AROCLOR 1254 (10%), Method: PREINCUBATION inactive; negative | Test System: AMES SALMONELLA TYPHIMURIUM, Strain/Indicator: TA100, Metabolic Activation: RAT, LIVER, S-9, AROCLOR 1254 (30%), Method: PREINCUBATION inactive; negative | Test System: AMES SALMONELLA TYPHIMURIUM, Strain/Indicator: TA1535, Metabolic Activation: HAMSTER, LIVER, S-9, AROCLOR 1254 (10%), Method: PREINCUBATION inactive; negative | Test System: AMES SALMONELLA TYPHIMURIUM, Strain/Indicator: TA1535, Metabolic Activation: HAMSTER, LIVER, S-9, AROCLOR 1254 (30%), Method: PREINCUBATION inactive; negative | Test System: AMES SALMONELLA TYPHIMURIUM, Strain/Indicator: TA1535, Metabolic Activation: NONE, Method: PREINCUBATION inactive; negative | Test System: AMES SALMONELLA TYPHIMURIUM, Strain/Indicator: TA1535, Metabolic Activation: RAT, LIVER, S-9, AROCLOR 1254 (10%), Method: PREINCUBATION inactive; negative | Test System: AMES SALMONELLA TYPHIMURIUM, Strain/Indicator: TA1535, Metabolic Activation: RAT, LIVER, S-9, AROCLOR 1254 (30%), Method: PREINCUBATION inactive; negative | Test System: AMES SALMONELLA TYPHIMURIUM, Strain/Indicator: TA1537, Metabolic Activation: HAMSTER, LIVER, S-9, AROCLOR 1254 (30%), Method: PREINCUBATION inactive; negative | Test System: AMES SALMONELLA TYPHIMURIUM, Strain/Indicator: TA1537, Metabolic Activation: NONE, Method: PREINCUBATION inactive; negative | Test System: AMES SALMONELLA TYPHIMURIUM, Strain/Indicator: TA1537, Metabolic Activation: RAT, LIVER, S-9, AROCLOR 1254 (30%), Method: PREINCUBATION inactive; negative

Cc1cc2ncccc2c2nc(N)n(C)c12
active: End Point: IN VITRO MICRONUCLEUS, Test System: CHL/IU CELLS, Metabolic Activation: RAT, LIVER, S-9, PHENOBARBITAL AND 5,6-BENZOFLAVONE active; positive | Test System: AMES SALMONELLA TYPHIMURIUM, Strain/Indicator: TA98, Metabolic Activation: HAMSTER, LIVER, HEPATOCYTES, Method: STANDARD PLATE active; positive | Test System: AMES SALMONELLA TYPHIMURIUM, Strain/Indicator: TA98, Metabolic Activation: HUMAN, BLOOD, CYTOSOL, Method: PREINCUBATION active; positive | Test System: AMES SALMONELLA TYPHIMURIUM, Strain/Indicator: TA98, Metabolic Activation: RAT, LIVER, HEPATOCYTES, AROCLOR 1254, Method: PREINCUBATION active; positive | Test System: AMES SALMONELLA TYPHIMURIUM, Strain/Indicator: TA98, Metabolic Activation: RAT, LIVER, HEPATOCYTES, Method: PREINCUBATION active; positive | Test System: AMES SALMONELLA TYPHIMURIUM, Strain/Indicator: TA98, Metabolic Activation: RAT, LIVER, HEPATOCYTES, Method: STANDARD PLATE active; positive | Test System: AMES SALMONELLA TYPHIMURIUM, Strain/Indicator: TA98, Metabolic Activation: RAT, LIVER, S-9, AROCLOR 1254, Method: PREINCUBATION active; positive | Test System: AMES SALMONELLA TYPHIMURIUM, Strain/Indicator: TA98, Metabolic Activation: RAT, LIVER, S-9, N-BENZYLIMIDAZOLE, Method: PREINCUBATION active; positive | Test System: AMES SALMONELLA TYPHIMURIUM, Strain/Indicator: TA98, Metabolic Activation: RAT, LIVER, S-9, Method: STANDARD PLATE active; positive | Test System: AMES SALMONELLA TYPHIMURIUM, Strain/Indicator: TA98, Metabolic Activation: S-9, Method: STANDARD PLATE active; positive | Test System: AMES SALMONELLA TYPHIMURIUM, Strain/Indicator: TA98, Method: STANDARD PLATE active; positive | Test System: AMES SALMONELLA TYPHIMURIUM, Strain/Indicator: TA100, Metabolic Activation: RAT, LIVER, S-9, AROCLOR 1254, Method: PREINCUBATION active; positive | Test System: AMES SALMONELLA TYPHIMURIUM, Strain/Indicator: TA100, Metabolic Activation: RAT, LIVER, S=9, AROCLOR 1254, Method: PREINCUBATION active; positive | Test System: AMES SALMONELLA TYPHIMURIUM, Strain/Indicator: TA100, Metabolic Activation: S-9, Method: STANDARD PLATE active; positive | Test System: CHINESE HAMSTER V-79, Strain/Indicator: V-79/6-THIOGUANINE, Metabolic Activation: HAMSTER, PANCREAS DUCT, EPITHELIAL CELLS active; positive | Test System: CHINESE HAMSTER V-79, Strain/Indicator: V-79/6-THIOGUANINE, Metabolic Activation: HUMAN, PANCREAS DUCT, EPITHELIAL CELLS active; positive | Test System: CHINESE HAMSTER V-79, Strain/Indicator: V-79/6-THIOGUANINE, Metabolic Activation: RAT, LIVER, HEPATOCYTES, AROCLOR 1254 active; positive | Test System: UDS HAMSTER HEPATOCYTES, Strain/Indicator: THY INCORP, Metabolic Activation: NONE, Method: LIQUID SCINTILLATION COUNTING active; positive | Test System: UDS HUMAN HEPATOCYTES, Strain/Indicator: THY INCORP, Metabolic Activation: NONE, Method: AUTORADIOGRAPHY active; positive | Test System: UDS MOUSE HEPATOCYTES, Strain/Indicator: THY INCORP, Metabolic Activation: NONE, Method: AUTORADIOGRAPHY active; positive | Test System: UDS RAT HEPATOCYTES, Strain/Indicator: THY INCORP, Metabolic Activation: NONE, Method: AUTORADIOGRAPHY active; positive | Test System: UDS RAT HEPATOCYTES, Strain/Indicator: THY INCORP, Metabolic Activation: NONE, Method: LIQUID SCINTILLATION COUNTING active; positive
inactive: Test System: AMES SALMONELLA TYPHIMURIUM, Strain/Indicator: TA98(1,8-DNP6), Metabolic Activation: RAT, LIVER, S-9, Method: STANDARD PLATE inactive; negative | [1] inactive; negative | Test System: AMES SALMONELLA TYPHIMURIUM, Strain/Indicator: TA98, Metabolic Activation: NONE, Method: STANDARD PLATE inactive; negative | [2] inactive; negative | Test System: AMES SALMONELLA TYPHIMURIUM, Strain/Indicator: TA100, Metabolic Activation: NONE, Method: STANDARD PLATE inactive; negative
